Test results as given in US7557142B2, “Therapeutic use of methionine to reduce the toxicity of platinum-containing anti-tumor compounds” (Board of Trustees of Southern Illinois University, priority 1996, dated 2009).
Entries after “also recorded” stand apart in the source; their conditions may differ. Where a name gives a salt, the structure may show the parent alone.

Experiments:
[1] = parenteral administration in humans; Printen et al., 1979; cited from earlier work
[2] = tested on: NHIK 3025 in vitro human uterine cervix carcinoma in situ cancer cells; settings: methionine, presumably a racemic mixture; Melvik and Petterson, 1987; cited from earlier work
[3] = tested on: rats; settings: cited from earlier work; for CDDP nephroprotection: literature (Jones et al.; others)
[4] = literature; cited from earlier work
[5] = tested on: male Wistar rats; assay: Scanning electron microscopy, outer hair cell count per cochlear turn; type: in vivo, rat; settings: for outer hair cell findings, middle and basal turns: versus untreated control, 75, 150, 300 mg/kg D-Met prior to 16 mg/kg CDDP
Description: (§1) Complete data sets were obtained for five groups of five male Wistar rats (280-421 g). All animals were anesthetized with […] IM of Rompun cocktail (a solution containing 86.21 mg/ml ketamine and 2.76 mg/ml xylazine) prior to all injections and testing. Anesthesia was supplemented as needed with half doses throughout testing.
(§2) ABR data were analyzed using a three factor analysis of variance (ANOVA) with one between subject factor (groups) and two within subject factors (frequency and pre- vs. post-test). Each dependent variable was analyzed independently. Tests subsequent to the ANOVA were carried out in accordance with the Tukey HSD procedure. Weight loss and/or gastrointestinal protection was measured using the same type of statistical analysis as the ABR measures. SEM data were analyzed for each turn using a one way analysis of variance with Post-Hoc Tukey HSD analysis. The criterion for statistical significance for all measures was p≦0.01.

[6] = tested on: male Wistar rats
Description: as §1

[7] = tested on: Walker 256 carcinosarcoma; settings: rat, in vivo; cited from earlier work
[8] = tested on: patients; settings: human, in vivo; cited from earlier work
[9] = literature; cited from earlier work; remark: listed apart in the source
[10] = tested on: male Wistar rats; assay: Auditory Brainstem Testing (ABR) of auditory threshold, D-Met before CDDP; type: in vivo, rat
[11] = tested on: male Wistar rats; remark: listed apart in the source
Description: as §1
Each animal's weight was measured in an Ohaus triple beam balance scale before administration of the anesthetic for the pretest and again before the post-test 3 days later.
as §2

[12] = tested on: animals; settings: literature, cited from earlier work
[13] = tested on: hamsters; settings: Church et al. (1995); cited from earlier work
[14] = tested on: patients; settings: cited from earlier work
[15] = 16 mg/kg CDDP alone (treated control)

CSCCC(N)C(=O)O (racemic) [DL-methionine]
plasma levels of isomers [1]: higher plasma levels of the D- isomer

CSCC[C@H](N)C(=O)O (racemic) [methionine]
effect of preadministration on CDDP cytotoxicity [2]: sensitized NHIK 3025 in vitro human uterine cervix carcinoma in situ cancer cells to CDDP cytotoxicity

CSc1ncccc1C(=O)O [2-(methylthio)nicotinic acid]
CDDP nephroprotection [3]: does not provide nephroprotection in rats

O=C(O)CCCC[C@@H]1SC[C@@H]2NC(=O)N[C@@H]21 [Biotin]
CDDP nephroprotection [3]: good CDDP nephroprotection
effect on CDDP anti-tumor action [4]: inhibits anti-tumor activity

N.N.[Cl][Pt][Cl] [CDDP, cis-diamminedichloroplatinum(II)]
outer hair cell findings, middle and basal turns [5]: significantly different findings from the untreated control group
animals surviving to the end of the study period [6, 15]: 5/10
animals that did not survive to the end of the study period [6, 15]: 50%
time to complete redistribution after tumor uptake [7]: ≤ 15 min
patients with hearing loss having complete recovery [8]: one of 121

C[C@H](CS)C(=O)N1CCC[C@H]1C(=O)O [Captropril]
CDDP nephroprotection [3]: protects against CDDP nephrotoxicity

CC1=C(C(=O)O)N2C(=O)[C@@H](NC(=O)[C@H](N)c3ccccc3)[C@H]2SC1 [Cephalexin]
prevention of CDDP kidney pathology ([3]; Jones et al., 1992): does not prevent kidney pathology
CDDP nephroprotection [3]: protects against CDDP-induced kidney dysfunction and weight loss
protection against CDDP-induced weight loss [9]: protects against CDDP-induced kidney dysfunction and weight loss

CSCC[C@@H](N)C(=O)O [D-Met, D-methionine]
animals with complete otoprotection as defined by no significant ABR threshold shift for any stimulus ([10]; 75 mg/kg D-Met i.p. 30 minutes prior to 16 mg/kg CDDP, ABR 3 days later): 2/5
animals with complete otoprotection as defined by no significant ABR threshold shift for any stimulus ([10]; 150 mg/kg D-Met i.p. 30 minutes prior to 16 mg/kg CDDP, ABR 3 days later): 3/5
animals with complete otoprotection for all stimulus conditions ([10]; 300 mg/kg D-Met i.p. 30 minutes prior to 16 mg/kg CDDP, ABR 3 days later): 5 animals
ABR thresholds compared with treated control group, all stimuli ([10]; any level of D-Met (75, 150, 300 mg/kg) prior to 16 mg/kg CDDP, p≦0.01): significantly lower ABR thresholds than the treated control group
hair cell counts, apical turn ([5]; all groups, apical turn): essentially normal hair cell counts
outer hair cell findings, middle and basal turns [5]: only the treated control group showed significantly different findings
weight loss compared with treated control group ([11]; 300 mg/kg D-Met prior to 16 mg/kg CDDP, 3 days): significantly less than that in the treated control group
CDDP-induced weight loss versus D-Met dose ([11]; 75, 150, 300 mg/kg D-Met prior to 16 mg/kg CDDP): diminished as D-Met dosing increased
alopecia: coat and hair loss versus control group animals ([6]; D-Met prior to 16 mg/kg CDDP): significantly less hair loss
neuroprotection: activity and coordination versus surviving treated controls ([6]; morning of the third day, D-Met prior to 16 mg/kg CDDP): noticeably more lively, active, and coordinated
CDDP nephroprotection [3]: highly effective CDDP nephroprotection

CCN(CC)C(=S)S [DDTC, diethyldithiocarbamate]
side effects of the protective agent [12]: can produce severe side effects

CCOC(=O)[C@@H](N)CS [Ethyl-L-cysteinate]
CDDP nephroprotection [3]: exacerbate CDDP nephrotoxicity

CSCC[C@H](N)C(N)=O [L-methioninamide]
CDDP nephroprotection [3]: excellent CDDP nephroprotection
effect on CDDP anti-tumor action [4]: impairs CDDP anti-tumor action

CC(S)C(=O)NCC(=O)O (stereo not shown) [N-(2-mercapto-propionyl)glycine]
CDDP nephroprotection [3]: exacerbate CDDP nephrotoxicity

O=S([O-])([O-])=S.[Na+].[Na+] [STS, sodium thiosulfate]
CDDP nephroprotection [3]: reduces CDDP nephrotoxicity
effect on CDDP anti-tumor action [4]: may reduce CDDP tumoricidal action; also recorded: reduces the latter's tumoricidal action
CDDP otoprotection ([12]; animals): good CDDP otoprotection
protection against CDDP-induced weight loss [9]: may exacerbate CDDP-induced weight loss and mortality

Nc1ccc(S(=O)(=O)Nc2nccs2)cc1 [Sulfathiazole]
CDDP nephroprotection [3]: provides protection against CDDP nephrotoxicity

NCCCNCCSP(=O)(O)O [WR2721]
protection from CDDP ototoxicity or mortality [13]: no WR2721 protection from ototoxicity or mortality
effect on nausea and vomiting ([14]; Glover et al., 1987): does not ameliorate nausea and vomiting
CDDP nephroprotection ([14]; Mollman et al., 1988): excellent CDDP nephroprotection
patients with mild to severe hearing loss ([14]; WR2721 prior to CDDP, Glover et al. (1987)): 20 of 36
incidence of significant hearing threshold shift ([14]; patients pretreated with WR2721 prior to CDDP, Rubin et al. (1995)): 45%

CO[C@@]1(NC(=O)Cc2cccs2)C(=O)N2C(C(=O)O)=C(COC(N)=O)CS[C@@H]21 [cefoxitin]
CDDP nephroprotection [3]: does not provide nephroprotection
protection against CDDP-induced weight loss [9]: some protection against CDDP-induced weight loss

CC1(C)S[C@@H]2[C@H](NC(=O)Cc3ccccc3)C(=O)N2[C@H]1C(=O)[O-].[Na+] [sodium salt of penicillin G, penicillin G]
CDDP nephroprotection [3]: does not protect against CDDP nephrotoxicity or weight loss
protection against CDDP-induced weight loss [9]: does not protect against CDDP nephrotoxicity or weight loss

Cc1ncc(C[n+]2csc(CCO)c2C)c(N)n1 [thiamine-HCl]
CDDP nephroprotection [3]: does not protect against cisplatin nephrotoxicity or weight loss
protection against CDDP-induced weight loss [9]: does not protect against cisplatin nephrotoxicity or weight loss
